Values belong to the compound of their own block, whether it stands above or below them. Residues, ends and D or L forms follow the SMILES beside them. *: point of attachment. Myristoyl = CCCCCCCCCCCCCC(=O)*
Columns and labels:
Assay type in all cases: cell-based, human
platelets [1] = experiment: Platelet stable adhesion on immobilized fibrinogen (phosphatase assay); conditions: 62.5-250 μM
Method: (§1) FIG. 2A-C: Quantitative analysis of the effect of myristoylated RGT peptide on platelet stable adhesion and spreading on immobilized fibrinogen. FIG. 2A: Platelets were added to microtiter wells precoated with fibrinogen and allowed to adhere for 30 min at 37° C. The phosphatase activity in supernatants (open columns) or in adherent platelets (close columns) was quantified by a PNPP assay. Data of three experiments (means and SD) were presented as the ratio of the phosphatase activity of platelet samples over blank. The asterisks indicate peptide concentration (* 62.5 μM; ** 125 μM; *** 250 μM). […] The phosphatase activity in supernatants (open columns) or in remaining platelet suspensions (close columns) was quantified by a PNPP assay. […] For quantitative analysis of the effect of the RGT peptide on platelet adhesion, we used a phosphatase assay. […] Nonadherent platelets were removed by three vigorous washes with phosphate-buffered saline (PBS), and adherent platelets were quantified by a phosphatase assay. In addition, to monitor peptide-dependent platelet lysis, the platelet phosphatase activity was separately measured in the supernatant of the platelets in suspension or following their adhesion to fibrinogen by mixing with PNPP substrate solution (100 mM sodium acetate, 1% Triton X-100, 3 mg/ml p-nitrophenyl phosphate) for 60 min at 37° C. […]

platelets [2] = system: platelets
Method: as §1

washed platelets = experiment: Plasma-free platelet-mediated fibrin clot retraction with washed platelets; conditions: 1 mM
Method: FIG. 3A-B: Effects of myr-RGT on fibrin clot retraction and platelet aggregation. FIG. 3A: Platelets were washed and resuspended in HEPES buffer containing 2 mg/ml of human fibrinogen (see “Experimental Procedures”) and incubated with different peptides or their vehicles as indicated. Fibrin clot formation was initiated by adding 1 U/ml thrombin. Clot retraction was monitored over time and photographs of the clots were taken at different time points (lower panel). The asterisks indicate peptide concentration (* 62.5 μM; ** 125 μM; *** 250 μM). The histograms of the clot size were generated from the photographs by calculating the ratio of the surface area of the retracted clot versus that of the initial clot. […]
Platelet clot retraction is an essential step in platelet thrombus consolidation and is initiated following platelet activation as a late consequence of integrin outside-in signaling. […] Clot retraction was monitored over a 90 min time period by taking photographs at indicated time points using a digital camera. Clot retraction was quantified on the photographs by measuring the clot surface area with the NIH Image 1.67e software, and the data were processed using Excel 4.0. Results were expressed as percentage of retraction (%=area t/area t0×100%).

Compound: CCCCCCCCCCCCCC(=O)O [myristic acid, tetradecanoic acid]
- effect on platelet stable adhesion on immobilized fibrinogen (platelets [1]): no significant inhibitory effect

- platelet lysis (platelets [2]): did not induce platelet lysis
Compound: CCCCCCCCCCCCCC(=O)N[C@@H](CCCNC(=N)N)C(=O)NCC(=O)N[C@H](C(=O)O)[C@@H](C)O [myr-RGT] (Myristoyl-Arg-Gly-Thr-OH; N-terminus and C-terminus assumed)

Compound: RGDS
- inhibition of clot retraction (washed platelets): inhibit clot retraction

Reference: patent US8563690B2, “Modulation of platelet aggregation” (The Board of Trustees of the University of Illinois, priority 2008, dated 2013)
